TGI and GI50 data for 12 compounds are collected here from PubChem BioAssay (NCI).

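Step 1: Grow cells in 96-well plates. Step 2: Expose to compound for 48 hours at 5 concentrations. Step 3: Interpolate endpoints linearly; if unreached, use highest concentration. Here, GI50 denotes the concentration required for 50% inhibition of growth. TGI marks complete inhibition of growth.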

Among the test systems are HCT-15 colon; K-562 leukemia; OVCAR-4 ovarian; PC-3 prostate; SF-539 CNS; SW-620 colon; T-47D breast; U251 CNS; UACC-257 melanoma; MOLT-4 leukemia.
Common to all, as to assay: NCI-60 cell line screen, 48 h

Turning to `O=c1[nH]nc(Nc2ccc(Cl)cc2)c2nnn(C3CCCCC3)c12`, the TGI with HCT-15 colon is greater than 100 µM; in the assay on K-562 leukemia, greater than 100 µM; in the assay on OVCAR-4 ovarian, 43.1 µM; in the assay with PC-3 prostate, greater than 100 µM; in the assay with SF-539 CNS it was greater than 100 µM; in the assay on SW-620 colon it was greater than 100 µM. For the same compound, the TGI was greater than 100 µM with T-47D breast, 91 µM in the assay on U251 CNS and greater than 100 µM in the assay on UACC-257 melanoma.
For the compound `O=c1c2[nH]cnc2n(-c2ccccc2)c(=S)n1-c1ccccc1`, the TGI with HCT-15 colon, in the assay with K-562 leukemia, in the assay on MOLT-4 leukemia, in the assay with OVCAR-4 ovarian, with PC-3 prostate and with SF-539 CNS was greater than 100 µM each time. In addition, the TGI in the assay on SW-620 colon, in the assay on T-47D breast, with U251 CNS and in the assay on UACC-257 melanoma was greater than 100 µM in each case.
`OCCN1CCN(c2nc(N3CCCC3)c3nc(Cl)c(NCc4ccccc4)nc3n2)CC1`: the TGI in the assay with HCT-15 colon worked out at 7.91 µM; in the assay on K-562 leukemia, 22 µM; with MOLT-4 leukemia it was 15.3 µM; with OVCAR-4 ovarian, 25.4 µM; with PC-3 prostate, 22.8 µM; in the assay on SF-539 CNS, 13.6 µM. Besides, the TGI was determined as 17.5 µM with SW-620 colon, 17.4 µM with T-47D breast, 18.2 µM with U251 CNS and 9.79 µM in the assay on UACC-257 melanoma.
As to `Cc1ccc(S(=O)(=O)NC(=O)Nc2ccc(C(=O)O)cc2)cc1`, the TGI in the assay on HCT-15 colon, with K-562 leukemia, in the assay with MOLT-4 leukemia, in the assay with OVCAR-4 ovarian, in the assay with PC-3 prostate and in the assay on SF-539 CNS was greater than 100 µM in each case. For the same compound, the TGI in the assay with SW-620 colon, in the assay on T-47D breast, with U251 CNS and in the assay with UACC-257 melanoma was greater than 100 µM throughout.
For `COc1cc(C2c3cc4c(cc3[C@@H](Nc3ccc(F)cc3)C3COC[C@H]23)OCO4)cc(OC)c1O` (stereo partly specified), the TGI with HCT-15 colon was 18.9 µM; in the assay with K-562 leukemia it was 20.7 µM; in the assay on MOLT-4 leukemia, 0.993 µM; with OVCAR-4 ovarian it was greater than 25 µM; with PC-3 prostate, greater than 25 µM; in the assay with SF-539 CNS, 3.49 µM. The TGI was greater than 25 µM with SW-620 colon, greater than 25 µM with T-47D breast, 18 µM with U251 CNS and greater than 25 µM in the assay with UACC-257 melanoma.
In the case of `CC(=O)Oc1cc2c(cc1OCC(F)(F)F)[C@H]1CC[C@]3(C)[C@@H](OC(C)=O)CC[C@H]3[C@@H]1CC2=O`, the TGI in the assay on HCT-15 colon is greater than 88 µM; with K-562 leukemia it was greater than 100 µM; with MOLT-4 leukemia, 38.8 µM; in the assay on OVCAR-4 ovarian, 63.8 µM; with PC-3 prostate it was 37.6 µM; in the assay on SF-539 CNS it was 46.1 µM. Also, the TGI is greater than 92.4 µM with SW-620 colon, greater than 89.1 µM with T-47D breast, greater than 74.1 µM in the assay with U251 CNS and 72.8 µM in the assay on UACC-257 melanoma.
As for `N#Cc1cc(F)cc(Oc2ccc(S(=O)(=O)C(F)F)c3c2CC(F)(F)[C@H]3O)c1`, the GI50 with HCT-15 colon is 29.2 µM; in the assay with K-562 leukemia it was 27.1 µM; in the assay on MOLT-4 leukemia, 27.6 µM; with OVCAR-4 ovarian, 19 µM; in the assay with PC-3 prostate it was 23.9 µM; in the assay on SF-539 CNS, 37 µM. Also, the GI50 with SW-620 colon is 55.3 µM; with T-47D breast, 16.3 µM; in the assay on U251 CNS it was 29.8 µM; with UACC-257 melanoma, 24.6 µM. Further, the TGI in the assay with HCT-15 colon is greater than 100 µM; in the assay with K-562 leukemia, greater than 100 µM; in the assay on MOLT-4 leukemia, greater than 100 µM; in the assay with OVCAR-4 ovarian, 91.7 µM; with PC-3 prostate, greater than 100 µM; in the assay with SF-539 CNS, greater than 100 µM. Also, the TGI was greater than 100 µM with SW-620 colon, greater than 100 µM with T-47D breast, greater than 100 µM with U251 CNS and 79.1 µM in the assay on UACC-257 melanoma.
Take `O=C(Nc1ccc(-n2cc(-c3ccncc3)c(-c3ccc(O)c(Cl)c3)n2)cc1)Nc1cc(C(F)(F)F)cc(C(F)(F)F)c1`: the GI50 is 3.36 µM in the assay on HCT-15 colon; 4.07 µM in the assay with K-562 leukemia; 4.29 µM in the assay with MOLT-4 leukemia; 2.92 µM in the assay with OVCAR-4 ovarian; 2.92 µM in the assay with PC-3 prostate; 3.81 µM with SF-539 CNS. For the same compound, the GI50 is 5.93 µM in the assay on SW-620 colon, 3.28 µM in the assay on T-47D breast, 2.98 µM in the assay on U251 CNS and 5.81 µM in the assay on UACC-257 melanoma. The TGI in the assay with HCT-15 colon stood at 12.6 µM; in the assay on K-562 leukemia, 17.9 µM; in the assay with MOLT-4 leukemia it was 18.3 µM; in the assay on OVCAR-4 ovarian, 10.7 µM; in the assay with PC-3 prostate, 11.5 µM; in the assay with SF-539 CNS, 15.3 µM. Moreover, the TGI in the assay with SW-620 colon worked out at 22 µM; in the assay on T-47D breast, 10.7 µM; in the assay on U251 CNS, 12.4 µM; with UACC-257 melanoma, 20.5 µM.
`NC(=O)CSc1nc2ccccc2c(=O)n1N`: the TGI in the assay on HCT-15 colon, in the assay on K-562 leukemia, in the assay with MOLT-4 leukemia, in the assay with OVCAR-4 ovarian, in the assay with PC-3 prostate and in the assay with SF-539 CNS was greater than 100 µM throughout. The TGI with SW-620 colon, in the assay with T-47D breast, in the assay on U251 CNS and in the assay on UACC-257 melanoma was greater than 100 µM each time.
With `COC(=O)CCC(C)[C@H]1CCC2C3CC[C@@H]4CC5(CC[C@]4(C)C3C[C@H](OC(C)=O)[C@@]21C)OOC1(CCCCC1)OO5` (stereo partly specified), the TGI in the assay on HCT-15 colon, in the assay with K-562 leukemia, with MOLT-4 leukemia, in the assay with OVCAR-4 ovarian, with PC-3 prostate and with SF-539 CNS was greater than 100 µM each time. The TGI in the assay with T-47D breast was 50 µM; in the assay with U251 CNS it was greater than 100 µM; in the assay on UACC-257 melanoma, greater than 100 µM.
`C[n+]1c2ccccc2n2c3ccccc3c(NCCCn3ccnc3)c(C#N)c21`: the TGI in the assay with HCT-15 colon was 12 µM; in the assay on K-562 leukemia, greater than 26 µM; in the assay with MOLT-4 leukemia it was greater than 35.7 µM; in the assay with OVCAR-4 ovarian it was 7.42 µM; in the assay on PC-3 prostate, 9.62 µM; with SF-539 CNS it was 24.5 µM. For the same compound, the TGI with T-47D breast was greater than 19.6 µM; in the assay on U251 CNS, greater than 33 µM; in the assay on UACC-257 melanoma it was 35.5 µM.
With `O=C(/C=C/c1ccccc1)c1cc(CN2CCOCC2)c(O)c(CN2CCOCC2)c1`, the TGI stood at 29.7 µM with HCT-15 colon; 36.2 µM in the assay with K-562 leukemia; 75.6 µM with MOLT-4 leukemia; 38.4 µM in the assay with PC-3 prostate; 32.6 µM in the assay on SF-539 CNS; 28.9 µM in the assay with SW-620 colon. For the same compound, the TGI stood at 48 µM in the assay with T-47D breast, 16.3 µM in the assay on U251 CNS and 31.1 µM in the assay with UACC-257 melanoma.
